10 compounds from patent US4981873A, “Substituted sulphonamides, pharmaceuticals thereof and methods of using them” (Boehringer Mannheim GmbH, priority 1988, dated 1991) can be followed below.

In assay [1] the test system is U 46619-Induced Pulmonary Embolism. The assay is described as follows: Preventing the U 46619-induced pulmonary embolism (survival rate of mouse). It is filed as in vivo. Conditions: male NMRI mice, lethal U 46619 injected i.v. (tail vein) after 4 hours; for responders at 25 mg/kg: Mus musculus, iv; for Survival Rate of Mouse 1 mg/kg, 4 h in %: 1 mg/kg by stomach tube. The procedure: 2. Preventing the U 46619-Induced Pulmonary Embolism
Male NMRI mice, with a body weight of 25 g. are used. The test substance is suspended in 1% methylcellulose and administered to the experimental animals with the help of a stomach tube. The provocation test consists of injecting the lethal dose (800-1000/μg/kg) of the thromboxane mimetic (U 46619 of the Upjohn Co.) rapidly into the tail vein. The duration of the specific antagonistic effect is tested by pretreating the animals with 25 mg or 1 mg/kg of the different test substances and injecting U 46619 after 4 hours. The survival rate indicates how many of the animals used have survived the injection of the thromboxane mimetic.

Assay [2] concerns thrombocyte aggregation (U 46619-induced). The assay is described as follows: TX antagonistic effect: inhibition of U 46619-induced thrombocyte aggregation in platelet-rich plasma (Born and Cross). It is filed as cell-based. Conditions: human platelet-rich plasma, citrate, aggregation followed over 5 minutes, read-out: Thromboxane Aggregation IC50. The source says: 1. TX Antagonistic Effect of Human […]
The thrombocyte aggregation is investigated by the method of Born and Cross (J. Physiol. 168, 178 (1963) in platelet-rich plasma of healthy blood donors. To inhibit clotting, the blood is mixed with 3.2% citrate in a ratio by volume of 1:9.
To induce thrombocyte aggregation, U 46619 (Upjohn & Co., Kalamazoo, USA), which is a stable analog of the prostaglandin endoperoxide […], is used. U 46619 was characterized as a selective thromboxane mimetic (Coleman et al., Brit. J. Pharmacol. 68, 127 P., 1980).
The aggregation test is carried out in a 4-channel aggregometer (Profiler® of the Bio/Data Co., USA). The course of the aggregation is followed over a period of 5 minutes. At the end of the test, the degree of aggregation attained is printed out. These values, which are obtained in the presence of different concentrations of the substance to be tested, are used for the determination of the IC50 for the TX antagonistic effect. The effectiveness varies inversely with the IC50 value.

pIC50: −log10 of the molar value. Read-outs that look alike come from different tables or passages of the source.

For the compound `O=C(O)CSCCCCCCNS(=O)(=O)c1ccc(Cl)cc1` [Example 4, 9-(4-Chlorobenzenesulphonamido)-3-thianonanoic acid], the responders at 25 mg/kg in assay [1] (25 mg/kg by stomach tube) amounted to 40%. Also, in assay [2] (5 min), the negative-log IC50 (pIC50) is 5.89.
On the same counts, the results for `CC(C)(SCCCCCNS(=O)(=O)c1ccc(Cl)cc1)C(=O)O` [Example 9, 8-(4-Chlorobenzenesulphonamido)-2,2-dimethyl-3-thiaoctanoic acid] are 40% and 5.28.
In assay [1] (25 mg/kg by stomach tube), `CC(C)(CCCSCCCNS(=O)(=O)c1ccc(Cl)cc1)C(=O)O` [Example 11, 9-(4-Chlorobenzenesulphonamido)-2,2-dimethyl-6-thianonanoic acid] showed a responders at 25 mg/kg of 80%. Besides, in assay [1], the “Survival Rate of Mouse 1 mg/kg, 4 h in %” value is on record as 0%. For the same compound, the negative-log IC50 (pIC50) in assay [2] (5 min) is 4.22.
On to `CC(C)(CCSCCCNS(=O)(=O)c1ccc(Cl)cc1)CC(=O)O` [Example 11.2, 9-(4-Chlorobenzenesulphonamido)-3,3-dimethyl-6-thianonanoic acid], for which, in assay [1] (25 mg/kg by stomach tube), the responders at 25 mg/kg was found to be 80%. Further, the “Survival Rate of Mouse 1 mg/kg, 4 h in %” value in assay [1] worked out at 0%. Moreover, in assay [2] (5 min), the pIC50 was 4.00.
With `CC(C)(CCSCCNS(=O)(=O)c1ccc(Cl)cc1)CC(=O)O` [Example 8.3, 8-(4-Chlorobenzenesulphonamido)-3,3-dimethyl-6-thiaoctanoic acid], the responders at 25 mg/kg in assay [1] (25 mg/kg by stomach tube) came out at 40%. Also, the pIC50 in assay [2] (5 min) is 5.30.
In assay [1] (25 mg/kg by stomach tube), `CC(C)(CCSCCNS(=O)(=O)c1ccc(Cl)cc1)C(=O)O` [Example 8, 7-(4-Chlorobenzenesulphonamido)-2,2-dimethyl-5-thiaheptanoic acid] displayed a responders at 25 mg/kg of 40%. In addition, the pIC50 in assay [2] (5 min) is 4.89.
As for `COc1ccc(S(=O)(=O)NCCCCCSC(C)(C)C(=O)O)cc1` [Example 9.2, 8-(4-Methoxybenzenesulphonamido)-2,2-dimethyl-3-thiaoctanoic acid], the responders at 25 mg/kg in assay [1] (25 mg/kg by stomach tube) was determined as 60%. In addition, the “Survival Rate of Mouse 1 mg/kg, 4 h in %” value in assay [1] came out at 20%. Also, in assay [2] (5 min), the negative logarithm of the IC50 (pIC50) is 4.00.
On the same counts, the results for `O=C(O)CSCCC/C=C\CNS(=O)(=O)c1ccc(Cl)cc1` [Example 7, (Z)-9-(4-Chlorobenzenesulphonamido)-3-thia-7-enenonanoic acid] are 100%, 60% and 5.85.
`O=C(O)C[S+]([O-])CCCCCCNS(=O)(=O)c1ccc(Cl)cc1` (stereo not shown) [Example 5, 9-(4-Chlorobenzenesulphonamido)-3-thianonanoic acid 3-oxide]: the responders at 25 mg/kg in assay [1] (25 mg/kg by stomach tube) came out at 40%. Also, the negative logarithm of the IC50 (pIC50) in assay [2] (5 min) was 5.68.
With “9-(4-Chlorobenzenesulphonamido)-3-thianonanoic acid [Example 6]”, the “Survival Rate of Mouse 1 mg/kg, 4 h in %” value in assay [1] is recorded as 100%. Moreover, the “Survival Rate of Mouse 25 mg/kg, 4 h in %” value in assay [1] (25 mg/kg by stomach tube) is 80%. For the same compound, the pIC50 in assay [2] was 5.47.

A word on the pIC50: it is −log10 of the IC50, conventionally taken in molar units.
